What was measured:
[1] = biological target: T1, human CCK-B/gastrin receptor (Homo sapiens, UniProt P32239); test: Inhibition of binding against gastrin receptor (125I-gastrin, CHO cells); settings: [125I]gastrin 25 pM, CHO cells expressing human CCK-B/gastrin receptor, 37° C.
T1 construct: expressed in transfected cells; host or cells: CHO cells (Chinese hamster ovary)
T1 sequence (P32239 1-447): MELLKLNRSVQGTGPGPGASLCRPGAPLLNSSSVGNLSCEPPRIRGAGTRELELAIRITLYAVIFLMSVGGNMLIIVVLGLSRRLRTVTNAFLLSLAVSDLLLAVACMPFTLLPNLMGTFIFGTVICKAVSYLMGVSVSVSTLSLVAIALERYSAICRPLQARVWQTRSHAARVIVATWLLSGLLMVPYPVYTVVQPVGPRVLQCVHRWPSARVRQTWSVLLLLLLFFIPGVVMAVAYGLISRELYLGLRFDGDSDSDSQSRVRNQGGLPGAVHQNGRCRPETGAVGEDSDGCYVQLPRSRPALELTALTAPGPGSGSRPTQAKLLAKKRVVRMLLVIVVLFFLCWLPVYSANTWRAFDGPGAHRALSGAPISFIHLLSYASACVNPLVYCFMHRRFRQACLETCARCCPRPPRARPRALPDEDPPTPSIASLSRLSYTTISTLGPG
Procedure: (§1) Separation of human CCK-B/gastrin receptor cDNA clone, separation of human CCK-A receptor cDNA clone, and expression of respective cloned receptors in heterologous cells.
(§2) cDNA of human CCK-B/gastrin receptor cDNA (Pisegna et al.: Biochem. Biophys. Res. Commun., 189, 296-303, 1992) and human CCK-A receptor cDNA (Ulrich et al.: Biochem. Biophys. Res. Commun., 193, 204-211, 1993) have already been isolated. The cDNAs having the reported nucleotide sequences were prepared using routine genetic engineering techniques. The isolated human CCK-B/gastrin receptor cDNA or human CCK-A receptor cDNA was integrated in an expression vector using routine genetic engineering techniques and transfected to CHO cells derived from the Chinese hamster ovary so as to induce expression of respective receptors.
The compounds of the present invention were evaluated by the receptor-binding assay using ^125 I-gastrin and human CCK-B/gastrin receptor expressed in CHO cells. CHO cells expressing the human CCK-B/gastrin receptor were cultured using a Dulbecco's modified Eagle minimum essential medium: nutrient mixture F-12 (hereinafter abbreviated as DMEM/F-12) containing 10% fetal bovine serum at 37° C. in an aerobic phase of 5% CO2 and 95% air. Using a culture dish having a diameter of 16 mm (base area: 2 cm^2), the cells were cultured so as to obtain 5×10^5 cells. The cells were washed with a binding buffer (Earle's balanced salt solution containing 10 mM 4-(2-hydroxyethyl)-1-piperazine ethanesulfonic acid (HEPES) (pH 7.4), 0.1% bovine serum albumin, 2 mM glutamine, and 0.22% sodium hydrogen carbonate) twice, after which a binding buffer (0.5 ml) was added to the dish. To this binding buffer, a test compound (5 μl) dissolved in dimethylsulfoxide (DMSO) was added. The reaction was then allowed to start by adding 0.01 ml (final concentration: 25 pM) of [^125 I]gastrin. When a nonspecific binding amount was obtained, reaction was carried out in the presence of 1 μM of non-labelled gastrin. Reaction was allowed to proceed at 37° C. in an aerobic phase of 5% CO2 and 95% air, after which the cells were washed with phosphate-buffered saline (PBS). [^125 I]gastrin which had not been bound to the cells was removed, and the cells were lysed by adding 1% Triton X-100 (250 μl) to the dish. Radioactivity of this solution was measured by a gamma counter. A specific binding amount was obtained by subtracting a nonspecific binding amount from a total binding amount. Using the thus-obtained specific binding amount, the percentage of the value obtained from a test substance addition group with respect to that of the DMSO addition group was calculated. The percentage was subjected to Hill conversion and then a least squares method, obtaining a 50% inhibitory concentration (IC50).

human CCK-A receptor = biological target: T2, human CCK-A receptor (Homo sapiens, UniProt P32238); test: Inhibition of binding against CCK-A receptor (125I-CCK8, CHO cells); settings: for receptor selectivity (IC50 ratio of CCK-A/gastrin): factor; for IC50: [125I]CCK8 25 pM, CHO cells expressing human CCK-A receptor, 37° C.
T2 construct: expressed in transfected cells; host or cells: CHO cells (Chinese hamster ovary)
T2 sequence (P32238 1-428): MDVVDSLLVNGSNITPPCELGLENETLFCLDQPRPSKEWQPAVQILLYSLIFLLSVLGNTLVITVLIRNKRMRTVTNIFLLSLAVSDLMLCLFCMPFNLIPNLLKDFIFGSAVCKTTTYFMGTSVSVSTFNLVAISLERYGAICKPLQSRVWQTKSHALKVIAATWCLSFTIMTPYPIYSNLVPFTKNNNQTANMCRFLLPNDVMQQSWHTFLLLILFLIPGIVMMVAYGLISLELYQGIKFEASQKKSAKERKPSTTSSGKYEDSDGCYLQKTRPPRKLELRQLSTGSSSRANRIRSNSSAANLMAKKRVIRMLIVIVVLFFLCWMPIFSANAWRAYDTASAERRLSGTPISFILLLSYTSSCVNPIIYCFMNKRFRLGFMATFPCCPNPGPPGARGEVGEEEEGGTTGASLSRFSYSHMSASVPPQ
Procedure: as §1, §2
Test method: The compounds of the present invention were evaluated by the receptor-binding assay using ^125 I-gastrin and human CCK-B/gastrin receptor expressed in CHO cells. CHO cells expressing a human CCK-A receptor were cultured using a DMEM/F-12 containing 10% fetal bovine serum at 37° C. in an aerobic phase of 5% CO2 and 95% air. Using a culture dish having a diameter of 16 mm (base area: 2 cm^2), the cells were cultured so as to obtain 5×10^5 cells. The cells were washed with a binding buffer (Earle's balanced salt solution containing 10 mM HEPES (pH 7.4), 0.1% bovine serum albumin, 2 mM glutamine, and 0.22% sodium hydrogen carbonate) twice, after which a binding buffer (0.5 ml) was added to the dish. To this binding buffer, a test compound (5 μl) dissolved in DMSO was added. The reaction was then allowed to start by adding 0.01 ml (final concentration: 25 pM) of [^125 I]CCK8. When a nonspecific binding amount was obtained, reaction was carried out in the presence of 1 μM of non-labelled CCK-8. Reaction was allowed to proceed at 37° C. in an aerobic phase of 5% CO2 and 95% air, after which the cells were washed with PBS. [^125 I]CCK8 which had not been bound to the cells was removed, and the cells were lysed by adding 1% Triton X-100 (250 μl) to the dish. Radioactivity of this solution was measured by a gamma counter. A specific binding amount was obtained by subtracting a nonspecific binding amount from a total binding amount. Using the thus-obtained specific binding amount, the percentage of the value obtained from a test substance addition group with respect to that of the DMSO addition group was calculated. The percentage was subjected to Hill conversion and then to a least squares method, obtaining a 50% inhibitory concentration (IC50).

SMILES	IC50 [1] [nM]	receptor selectivity (IC50 ratio of CCK-A/gastrin) (human CCK-A receptor)	IC50 (human CCK-A receptor) [nM]
Cc1cc(C)cc(N(C)C(=O)COc2ccccc2N(CC(=O)N(C)c2ccccc2)C(=O)CNC(=O)Nc2cccc(C(C)C(=O)O)c2)c1 (racemic) [Example 92, Sodium (±)-2-[3-[3-[N-[2-[N-methyl-N-(3,5-dimethylphenyl)carbamoylmethyloxy]phenyl]-N-(N-methyl-N-phenylcarbamoylmethyl)carbamoylmethyl]ureido]phenyl]sodium propionate]	0.5	7280	3640
COc1cccc(N(CC(=O)N(C)c2ccccc2)C(=O)CNC(=O)Nc2cccc(C(C)S(=O)(=O)O)c2)c1 (racemic) [Control compound A, potassium (±)-1-[3-[3-[N-(3-methoxyphenyl-N-(N-methyl-N-phenylcarbomoylmethyl)-carbamoylmethyl]ureido]phenylethane sulfonate, reference compound]	6.5	238	1480
Cc1cccc(N(C)C(=O)COc2ccccc2N(CC(=O)N(C)c2ccccc2)C(=O)CNC(=O)Nc2cccc(CC(=O)O)c2)c1 [Example 73, 2-[3-[3-[N-[2-[N-Methyl-N-(3-methylphenyl)carbamoylmethyloxy]phenyl]-N-(N-methyl-N-phenylcarbamoylmethyl)carbamoylmethyl]ureido]phenyl]acetic acid]	1.9		
Cc1ccccc1N(C)C(=O)COc1cccc(N(CC(=O)N(C)c2ccccc2)C(=O)CNC(=O)Nc2cccc(C(C)C(=O)O)c2)c1 (racemic) [Example 79, (±)-2-[3-[3-[N-[3-[N-Methyl-N-(2-methylphenyl)carbamoylmethyloxy]phenyl]-N-(N-methyl-N-phenylcarbamoylmethyl)carbamoylmethyl]ureido]phenyl]propionic acid]	1.6		
COc1cccc(N(C)C(=O)COc2ccccc2N(CC(=O)N(C)c2ccccc2)C(=O)CNC(=O)Nc2cccc(C(C)C(=O)O)c2)c1 (racemic) [Example 86, (±)-2-[3-[3-[N-[2-[N-(3-Methoxyphenyl)-N-methylcarbamoylmethyloxy]phenyl]-N-(N-methyl-N-phenylcarbamoylmethyl)carbamoylmethyl]ureido]phenyl]propionic acid]	1		
COc1cccc(N(C)C(=O)COc2ccccc2N(CC(=O)N(C)c2ccccc2)C(=O)CNC(=O)Nc2cccc(CC(=O)O)c2)c1 [Example 87, 2-[3-[3-[N-[2-[N-(3-Methoxyphenyl)-N-methylcarbamoylmethyloxy]phenyl]-N-(N-methyl-N-phenylcarbamoylmethyl)carbamoylmethyl]ureido]phenyl]acetic acid]	0.87	3654	3180
